Experimental data published in patent US9950067B2, “Trans carotenoids, their synthesis, formulation and uses” (Diffusion Pharmaceuticals, LLC, priority 2005, dated 2018).
Where “and” joins values, the source holds several entries; their conditions need not be identical. Identical values can stand only once. Entries after “also recorded” stand apart in the source; their conditions may differ. Like-named read-outs stand apart in the source and are kept apart here.

What was measured:
[1] = Solubility in water and aqueous formulations; type: physicochemical
Experimental: Formulation of TSC with Cyclodextrin-Mannitol • 1. Make up a solution containing equal-molar concentrations of the cyclodextrin and the TSC. Solutions containing over 20 mg TSC/ml of solution can be made this way. First, add the cyclodextrin to an injectable water, then add the TSC to that solution. • 2. Add d-mannitol, so that the final concentration is around 20 to 50 mg/ml of mannitol in solution. • 3. This solution can be added to isotonic saline in order to dilute it and still maintain the proper osmolality. Either add the solution to saline or add saline to the solution.
Formulation of TSC with Mannitol/Acetic Acid • 1. Make up a 0.01 M acetic acid solution in distilled water. • 2. […] Add the 0.0005 M acetic acid solution, slowly, to TSC. […] Add d-mannitol to above solution at a concentration of 50 mg/ml in order to obtain the proper osmolality. The pH of this solution is around 8 to 8.5. It should be close to being an isotonic solution, and, as such, can be injected directly into the blood stream.

[2] = Pulmonary administration, absorption into the blood stream; type: in vivo, rats
Experimental: In this method, the rats were intubated and a small volume (0.1 mL usually) of the TSC solution was injected followed by two 3-mL puffs of air.
Additional studies have been done with pulmonary dosing in which the effect of the volume of liquid injected into the trachea as well as using TSC in its formulated drug product form were investigated. The formulated drug product contained 8% γ-cyclodextrin, 2.3% mannitol and 50 mM glycine and 20 mg/mL TSC, reconstituted in sterile water. Sterile saline (0.9%) was added as a diluent in these studies in order to achieve the desired dosages. The same dose (937 μg/kg) was administered to all rats.

[3] = Intramuscular administration, absorption into the blood stream; type: in vivo, rats
Experimental: TSC is not absorbed via an intramuscular route when simply dissolved in de-ionized water; however, the addition of a cyclodextrin (as in the formulated drug product) results in absorption into the blood stream. Small volumes (0.05 mL) were injected into each thigh muscle of rats with TSC formulated with 2-hydroxypropyl-β-cyclodextrin or γ-cyclodextrin and dissolved in water.

[4] = Oral administration, plasma concentrations; type: in vivo, rats; details: with γ-cyclodextrin
Experimental: PE-50 tubing was used to deliver formulated TSC into the stomachs of rats, and plasma concentrations were measured after that. Rats were fasted for 24 hours prior to each experiment. Water was given ad libitum and coprophagy was prevented by using cages with wire-mesh floors. One study involved rats that were allowed food ad libitum after TSC administration and another study involved rats in which food was withheld after TSC administration.

[5] = tested on: rats subjected to hemorrhagic shock; test: Treatment of hemorrhagic shock; type: in vivo; details: for treatment of hemorrhagic shock: rats
[6] = Preclinical study of myocardial infarction; type: in vivo; details: injected intravenously
[7] = Stability of TSC in formulation versus pH; details: aqueous formulation
[8] = tested on: HCT116 human colon carcinoma tumors; test: Radiation sensitization of tumors grown on mice
Experimental: There were six study groups of five mice per group (for a total of 30 mice) designated Study Groups 1 through 6. All mice in the study were injected intravenously with either a TSC dose or a saline control for five successive days. As shown below, Study Groups 1, 2 and 3 received TSC doses A, B and C, which corresponds to 0.07, 0.14 and 0.28 mg/kg respectively for the study B, and 1.35, 0.54 and 0.18 mg/kg respectively for the study A.
Group 4 was injected as a saline control. At 45 minutes post-injection on each of the five successive days, the tumors of Study Groups 1-4 received 2 Gy irradiation. Study Group 5 received TSC only and Study Group 6 received saline only, and neither Study Group 5 nor 6 received irradiation. Tumor volumes in all Study Groups were measured weekly for the earlier of 4 weeks or until the tumors reached 4 times the volume at the start of treatment.

[9] = natural bipolar carotenoids, background; cited from earlier work
[10] = pulmonary, formulated drug product, 937 μg/kg

Question: For `CCOC(=O)/C(C)=C/C=C/C(C)=C/C=C/C=C(C)/C=C/C=C(\C)C(=O)OCC` [Compound E, Diethyl 2,6,11,15-Tetramethyl-hexadeca-2E,4E,6E,8E,10E,12E,14E-heptaene-1,16-diotate], which “solubility” value ([1]; in water and in THF) is on record?
Answer: Its value is “poorly soluble”.

Question: Which solubility ([1]; 0.0005 M acetic acid solution, aqueous buffer, thermodynamic from solid, read-out: Maximum solubility) does the source give for `CC(/C=C/C=C(\C)C(=O)[O-])=C\C=C\C=C(C)\C=C\C=C(/C)C(=O)[O-].[Na+].[Na+]` [TSC, trans sodium crocetinate] here?
Answer: The solubility was 6000 to 6500 µg/mL.

Question: What about the “dissolution in acetic acid” value ([1]; 0.001 M acetic acid) of the same compound?
Answer: Its value is “doesn't dissolve”.

Question: What about the “TSC content of aqueous solution” value ([1]; TSC and gamma-cyclodextrin) of the same compound?
Answer: Its value is ≤ 44 milligrams of TSC per ml of solution.

Question: And the “TSC content of solution” value ([1]; formulated with cyclodextrin and mannitol)?
Answer: The value was “over 20 mg TSC/ml of solution”.

Question: And the “solubility in water” value ([1]; water)?
Answer: The value was “soluble in water”.

Question: And the “pulmonary absorption without cyclodextrin” value ([2]; TSC in pH'd di-water)?
Answer: Its value is “successful absorption into the blood stream”.

Question: What about the “effect of larger injection volume of the same dose on bioavailability” value ([2]; pulmonary, 937 μg/kg) of the same compound?
Answer: Its value is “greater bioavailability”.

Question: And the “effect of γ-cyclodextrin on absorption into the systemic circulation” value [2, 10]?
Answer: The value was “enhances absorption”.

Question: What about the “effect of γ-cyclodextrin on plasma clearance” value [2, 10] of the same compound?
Answer: The value was “increasing plasma clearance”.

Question: And the “time to reach the maximum plasma concentration” value ([2]; rats, pulmonary)?
Answer: The value was under 5 min.

Question: What about the bioavailability ([3]; rat, plasma, im, 3347 μg/kg body weight, rats, intramuscular 3347 μg/kg with 14 mg 2-hydroxypropyl-β-cyclodextrin per kg) of the same compound?
Answer: Its bioavailability is 27%.

Question: And the “peak plasma TSC concentration” value ([3]; rats, intramuscular 3347 μg/kg with 14 mg 2-hydroxypropyl-β-cyclodextrin per kg)?
Answer: Its value is 4.8 µg/mL.

Question: And the “absorption via intramuscular route” value ([3]; simply dissolved in de-ionized water)?
Answer: The value was “not absorbed”.

Question: What about the “absorption via intramuscular route” value ([3]; with γ-cyclodextrin) of the same compound?
Answer: Its value is “successful absorption into the systemic circulation; also recorded: absorbed into the blood stream”.

Question: What about the “effect of γ-cyclodextrin on oral absorption” value [4] of the same compound?
Answer: Its value is “enhances absorption”.

Question: What about the “effect on tachycardia” value ([5]; rats subjected to hemorrhagic shock) of the same compound?
Answer: The value was “reduce tachycardia”.

Question: And the “treatment of hemorrhagic shock” value ([5]; intramuscular injection)?
Answer: The value was “successfully treated”.

Question: And the “treatment of hemorrhagic shock” value ([5]; pulmonary route)?
Answer: The value was “successfully treated”.

Question: What about the “effect on ventricular fibrillation” value [6] of the same compound?
Answer: The value was “prevented ventricular fibrillation”.

Question: And the “stability versus pH” value [7]?
Answer: The value was “more stable at higher pHs”.

Question: And the optimal dosage ([8]; Study A, i.v. 5 days, 2 Gy irradiation 45 minutes post-injection)?
Answer: The optimal dosage was 0.18 mg/kg.

Question: What about the “dosages that worked equally well” value ([8]; Study B, i.v. 5 days, 2 Gy irradiation 45 minutes post-injection) of the same compound?
Answer: Its value is 0.07 mg/kg and 0.14 mg/kg.

Question: What about the “effect on tumor growth” value ([8]; TSC alone, no irradiation, FIG. 3) of the same compound?
Answer: Its value is “does not appreciably affect tumor growth”.

Question: Which “solubility in water” value [9] does the source give for `CC(/C=C/C=C(\C)C(=O)O)=C\C=C\C=C(C)\C=C\C=C(/C)C(=O)O` [crocetin] here?
Answer: The value was “only sparingly soluble in water”.

Question: Which “solubility in water” value [9] does the source give for `CC(/C=C/C=C(\C)C(=O)O[C@@H]1O[C@H](CO[C@@H]2O[C@H](CO)[C@@H](O)[C@H](O)[C@H]2O)[C@@H](O)[C@H](O)[C@H]1O)=C\C=C\C=C(C)\C=C\C=C(/C)C(=O)O[C@@H]1O[C@H](CO[C@@H]2O[C@H](CO)[C@@H](O)[C@H](O)[C@H]2O)[C@@H](O)[C@H](O)[C@H]1O` [crocin] here?
Answer: The value was “significant solubility in water”.
